Source: patent publication US20240287138A1, “CYCLIC PEPTIDES FOR INHIBITING TNF RECEPTOR 1 ACTIVITY” (Merck Sharp & Dohme LLC, priority 2023, published 2024)
pIC50, pKd: −log10 of the molar value. Where two headings read alike, the source gives them in different places. Numbered stars: 1 amine (or outer) side, 2 acyl side, 3 side chain; on linkers, the order of the positions; unused ones are H or OH. Bridge positions count the residues as written; N and C are the ends. Square brackets hold non-standard residues; d marks the D form. Peptide text beside a SMILES is read from it. * marks the point of attachment. Trp(βS-Me,7-OMe) = COc1cccc2c([C@H](C)[C@H](N)C(=O)O)c[nH]c12; Ala(1-bicyclo(1.1.1)pentyl) = N[C@@H](CC12CC(C1)C2)C(=O)O; X12 = C[C@@H](c1ccc(O)cc1)[C@H](N[*:1])C(=O)[*:2]; Trp(7-Br) = N[C@@H](Cc1c[nH]c2c(Br)cccc12)C(=O)O; Trp(7-Cl) = N[C@@H](Cc1c[nH]c2c(Cl)cccc12)C(=O)O; Phe(4-CONH2) = NC(=O)c1ccc(C[C@H](N)C(=O)O)cc1; Phe(4-COOH) = N[C@@H](Cc1ccc(C(=O)O)cc1)C(=O)O; Trp(7-aza) = N[C@@H](Cc1c[nH]c2ncccc12)C(=O)O; Pip(5R-OH) = O=C(O)[C@@H]1CC[C@@H](O)CN1; X1 = O=C([C@@H]1CC[C@H](N[*:1])C1)[*:2]; Pip(4-aza) = O=C(O)[C@@H]1CNCCN1; hArg = N=C(N)NCCCC[C@H](N)C(=O)O; 4Pal = N[C@@H](Cc1ccncc1)C(=O)O; NMeE = CN[C@@H](CCC(=O)O)C(=O)O; dHyp = O=C(O)[C@H]1C[C@H](O)CN1; αMeS = C[C@](N)(CO)C(=O)O; Carboxymethyl = O=C(O)C*; Nle = CCCC[C@H](N)C(=O)O; Sar = CNCC(=O)O

Assays:
[1] = target: T1, human TNFR2 ECD protein (Homo sapiens, UniProt P20333); test: SPR off-target binding (selectivity) to human TNFR2 ECD
T1 construct: HRV 3C protease cleavage site (C); 6His (C, cleaved yes); made in house; host or cells: Sf21 insect cells (baculovirus), secreted
T1 sequence (P20333 23-257): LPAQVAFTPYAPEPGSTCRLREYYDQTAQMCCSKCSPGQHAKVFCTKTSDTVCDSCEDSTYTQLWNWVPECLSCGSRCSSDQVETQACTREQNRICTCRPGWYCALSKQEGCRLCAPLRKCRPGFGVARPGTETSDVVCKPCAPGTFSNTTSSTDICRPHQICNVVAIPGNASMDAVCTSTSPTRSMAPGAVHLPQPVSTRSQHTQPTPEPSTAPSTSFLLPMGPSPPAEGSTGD
Description: (§1) B. Procedure for Binding Affinity and Selectivity measured by SPR
(§2) Affinity and selectivity for hTNFR1 and TNFR2 was determined using SPR. Human TNFR1 or TNFR2 genes (extracellular domain only) were synthesized with a C-terminal Avi-tag, HRV 3C protease cleavage site followed by a 6His-tag for affinity purification. The final gene product was cloned into pBAC™-1 vector (Millipore Sigma) for expression testing in insect cells. Constructs were transfected into Sf21 cells for baculovirus generation followed by protein expression analysis in Sf21 and Tni cell lines. Large scale expression in Sf21 cells was performed using baculovirus infected insect cells (BIICs) infected at a MOI=2.0 grown for 72 h. Target proteins secreted into the media were harvested via centrifugation and concentrated using diafiltration. TNFR was purified by immobilized metal ion affinity chromatography (IMAC) using a Ni-Sepharose HisTrap™ column (Cytiva™). Isolated TNFR had His tag removed using HRV 3C protease followed by additional purification using Ni-NTA chromatography. Biotinylation was performed on Ni-NTA flow-through fractions concentrated to 45 μM and treated with BirA ligase (1:100, μg/μg ratio) in 50 mM Tris pH 7.5, 150 mM NaCl, 50 μM biotin, 10 mM magnesium acetate, 10 mM ATP at 4° C. for 20 h. Final purification of biotin-TNFR and buffer exchange into 20 mM HEPES pH 7.5, 150 mM NaCl was performed using a HiLoad® Superdex® 200 26/60 column (Cytiva™). Highly purified protein was aliquoted and stored at −80° C.
(§3) The SPR assay uses a Cytiva™ 8K or 8K+ biosensor instrument to measure the kinetics of peptide analytes binding to captured human TNFR1 extracellular domain (ECD) protein; peptide analytes are also evaluated for any off-target binding to human TNFR2 ECD protein in parallel. Recombinant human TNFR1 ECD and human TNFR2 ECD proteins, biotinylated via engineered C-terminal avi-tags, are immobilized to a regenerable streptavidin biosensor chip surface (Cytiva™ Biotin CAPture kit, Series S; cat. #28920234). Peptide analytes binding to immobilized human TNFR1 ECD protein and their subsequent dissociation are conducted in a buffer of 10 mM HEPES pH 7.4, 150 mM NaCl, 3 mM EDTA, 0.05% P20,2% DMSO under laminar flow conditions and measured in response units (RU), which are directly proportional to the accumulated mass on the surface of the biosensor chip; the biosensor chip surface is regenerated via Cytiva™ proprietary methods between the evaluation of each peptide analyte. […] The SPR assay determines the association and dissociation rate constants, kon and koff, for each peptide analyte and, from these values, calculates the binding affinity, […] reported in Table 2.

[2] = target: T2, human TNFR1 extracellular domain (ECD) protein (Homo sapiens, UniProt P19438); test: SPR binding affinity to captured human TNFR1 ECD
T2 construct: HRV 3C protease cleavage site (C); 6His (C, cleaved yes); made in house; host or cells: Sf21 insect cells (baculovirus), secreted
T2 sequence (P19438 30-211): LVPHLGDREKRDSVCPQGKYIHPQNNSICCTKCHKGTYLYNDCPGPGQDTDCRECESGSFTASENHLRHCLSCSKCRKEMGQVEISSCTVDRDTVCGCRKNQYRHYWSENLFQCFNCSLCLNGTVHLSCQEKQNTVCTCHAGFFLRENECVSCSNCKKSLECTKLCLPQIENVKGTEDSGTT
Description: as §1, §2, §3

[3] = target: T3, TNFα-induced NF-κB signal transduction pathway (TNFR1 signaling) in THP-1 cells (Homo sapiens, UniProt P19438); test: THP-1 Lucia NF-κB reporter cell assay, inhibition of TNFα-induced NF-κB signaling; format: cell-based; settings: THP-1 NF-κB Lucia reporter cells, 10 ng/mL TNFα, 16-18 h, secreted luciferase; read-out: THP-1 IC50
T3 sequence (P19438 30-455): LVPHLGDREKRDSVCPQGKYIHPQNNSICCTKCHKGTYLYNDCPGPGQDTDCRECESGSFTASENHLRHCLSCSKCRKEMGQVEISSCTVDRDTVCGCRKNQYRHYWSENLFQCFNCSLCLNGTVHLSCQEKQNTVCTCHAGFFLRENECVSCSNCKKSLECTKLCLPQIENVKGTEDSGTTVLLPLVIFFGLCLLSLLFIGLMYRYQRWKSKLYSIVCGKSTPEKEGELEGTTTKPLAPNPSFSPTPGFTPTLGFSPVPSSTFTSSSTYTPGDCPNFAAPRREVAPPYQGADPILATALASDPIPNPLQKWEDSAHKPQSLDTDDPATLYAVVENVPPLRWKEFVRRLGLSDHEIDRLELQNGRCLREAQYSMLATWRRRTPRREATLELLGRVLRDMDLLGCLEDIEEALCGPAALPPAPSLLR
In short: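 Macrocyclic peptides were preincubated 1 h at 37 °C with THP-1 NF-κB-Lucia reporter cells (20,000 cells/well) in antibiotic-free RPMI 1640/10% FBS, then stimulated with 10 ng/mL human TNFα overnight (16-18 h). Secreted luciferase in supernatant was read by luminescence; IC50 from 4-parameter logistic fits.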

Structure (SMILES)	pKd [1]	pKd [2]	pIC50 [3]	pKd ([1]; biotinylated human TNFR2 ECD on streptavidin chip, read-out: SPR hTNFR2 KD)	pKd ([2]; biotinylated human TNFR1 ECD on streptavidin chip, from kon and koff, read-out: SPR hTNFR1 KD)
CCCC[C@@H]1NC(=O)[C@@H]2CC[C@@H](C2)NC(=O)[C@H]([C@@H](C)c2c[nH]c3c(OC)cccc23)NC(=O)CN(C)C(=O)[C@H](Cc2ccc(OCC(=O)O)cc2)NC(=O)[C@H](Cc2ccc(C(N)=O)cc2)NC(=O)[C@](C)(CO)NC(=O)[C@H](Cc2c[nH]c3c(Cl)cccc23)NC(=O)[C@H](Cc2ccc(OCC(=O)O)cc2)NC(=O)[C@H](CC(N)=O)NC(=O)[C@H]2C[C@H](O)CN2C(=O)[C@H](Cc2c[nH]c3ccccc23)NC(=O)[C@@H]2CC[C@@H](O)CN2C(=O)[C@H](Cc2ccncc2)NC1=O [SEQ ID NO. 3] (cyclo([4Pal][Pip(5R-OH)]W[dHyp]NY(Carboxymethyl)[Trp(7-Cl)][αMeS][Phe(4-CONH2)]Y(Carboxymethyl)[Sar][Trp(βS-Me,7-OMe)][X1][Nle]))	< 6.00	10.40	9.30	–	–
CCCC[C@@H]1NC(=O)[C@@H]2CC[C@@H](C2)NC(=O)[C@H]([C@@H](C)c2c[nH]c3c(OC)cccc23)NC(=O)CN(C)C(=O)[C@H](Cc2ccc(O)cc2)NC(=O)[C@H](Cc2ccc(C(=O)O)cc2)NC(=O)[C@](C)(CO)NC(=O)[C@H](Cc2c[nH]c3c(Cl)cccc23)NC(=O)[C@H](Cc2ccncc2)NC(=O)[C@H](CC(N)=O)NC(=O)[C@H](CCC(=O)O)N(C)C(=O)[C@H](Cc2c[nH]c3ccccc23)NC(=O)[C@@H]2CNCCN2C(=O)[C@H](Cc2ccncc2)NC1=O [SEQ ID NO. 5] (cyclo([4Pal][Trp(7-Cl)][αMeS][Phe(4-COOH)]Y[Sar][Trp(βS-Me,7-OMe)][X1][Nle][4Pal][Pip(4-aza)]W[NMeE]N))	–	–	8.92	< 6.00	10.00
CCCC[C@@H]1NC(=O)CSC[C@@H](C(N)=O)NC(=O)[C@H]([C@@H](C)c2c[nH]c3c(OC)cccc23)NC(=O)CN(C)C(=O)[C@H](Cc2ccc(O)cc2)NC(=O)[C@H](Cc2ccc(C(=O)O)cc2)NC(=O)[C@](C)(CO)NC(=O)[C@H](Cc2c[nH]c3c(Cl)cccc23)NC(=O)[C@H](Cc2ccncc2)NC(=O)[C@H](CC(N)=O)NC(=O)[C@H](CCC(=O)O)N(C)C(=O)[C@H](Cc2c[nH]c3ncccc23)NC(=O)[C@@H]2CNCCN2C(=O)[C@H](CC23CC(C2)C3)NC1=O [SEQ ID NO. 33] ({CH2CO}-[Nle][Ala(1-bicyclo(1.1.1)pentyl)][Pip(4-aza)][Trp(7-aza)][NMeE]N[4Pal][Trp(7-Cl)][αMeS][Phe(4-COOH)]Y[Sar][Trp(βS-Me,7-OMe)]C-NH2; thioether N-14)	< 6.00	9.52	8.17	–	–
COc1cccc2c([C@H](C)[C@@H]3NC(=O)CN(C)C(=O)[C@H](Cc4ccc(O)cc4)NC(=O)[C@H](Cc4ccc(C(=O)O)cc4)NC(=O)[C@](C)(CO)NC(=O)[C@H](Cc4c[nH]c5c(Cl)cccc45)NC(=O)[C@H](Cc4ccncc4)NC(=O)[C@H](CC(N)=O)NC(=O)[C@H](CCC(=O)O)N(C)C(=O)[C@H](Cc4c[nH]c5ccccc45)NC(=O)[C@@H]4CNCCN4C(=O)[C@H](Cc4ccncc4)NC(=O)[C@H](CCCCNC(=N)N)NC(=O)[C@@H]4CC[C@@H](C4)NC3=O)c[nH]c12 [SEQ ID NO. 35] (cyclo([4Pal][Trp(7-Cl)][αMeS][Phe(4-COOH)]Y[Sar][Trp(βS-Me,7-OMe)][X1][hArg][4Pal][Pip(4-aza)]W[NMeE]N))	< 6.00	9.96	9.00	–	–
CCCC[C@@H]1NC(=O)CSC[C@@H](C(N)=O)NC(=O)[C@H]([C@@H](C)c2c[nH]c3c(OC)cccc23)NC(=O)CN(C)C(=O)[C@H](Cc2ccc(O)cc2)NC(=O)[C@H](Cc2ccc(C(N)=O)cc2)NC(=O)[C@](C)(CO)NC(=O)[C@H](Cc2c[nH]c3c(Br)cccc23)NC(=O)[C@H](Cc2ccncc2)NC(=O)[C@H](CC(N)=O)NC(=O)[C@H](CCC(=O)O)N(C)C(=O)[C@H](Cc2c[nH]c3ccccc23)NC(=O)[C@@H]2CC[C@@H](O)CN2C(=O)[C@H](Cc2ccncc2)NC1=O [SEQ ID NO. 39] ({CH2CO}-[Nle][4Pal][Pip(5R-OH)]W[NMeE]N[4Pal][Trp(7-Br)][αMeS][Phe(4-CONH2)]Y[Sar][Trp(βS-Me,7-OMe)]C-NH2; thioether N-14)	< 6.00	10.30	9.05	–	–
CCCC[C@@H]1NC(=O)[C@@H]2CC[C@@H](C2)NC(=O)[C@H]([C@@H](C)c2c[nH]c3c(OC)cccc23)NC(=O)CN(C)C(=O)[C@H](Cc2ccc(O)cc2)NC(=O)[C@H](Cc2ccc(C(N)=O)cc2)NC(=O)[C@](C)(CO)NC(=O)[C@H](Cc2c[nH]c3c(Cl)cccc23)NC(=O)[C@H](Cc2ccc(OCC(=O)O)cc2)NC(=O)[C@H](CC(N)=O)NC(=O)[C@H](CCC(=O)O)N(C)C(=O)[C@H](Cc2c[nH]c3ccccc23)NC(=O)[C@@H]2CC[C@@H](O)CN2C(=O)[C@H](Cc2ccncc2)NC1=O [SEQ ID NO. 44] (cyclo([4Pal][Pip(5R-OH)]W[NMeE]NY(Carboxymethyl)[Trp(7-Cl)][αMeS][Phe(4-CONH2)]Y[Sar][Trp(βS-Me,7-OMe)][X1][Nle]))	< 6.00	9.80	9.30	–	–
CCCC[C@@H]1NC(=O)CSC[C@@H](C(N)=O)NC(=O)[C@H]([C@@H](C)c2c[nH]c3c(OC)cccc23)NC(=O)CN(C)C(=O)[C@H](Cc2ccc(O)cc2)NC(=O)[C@H](Cc2ccc(C(=O)O)cc2)NC(=O)[C@](C)(CO)NC(=O)[C@H](Cc2c[nH]c3c(Cl)cccc23)NC(=O)[C@H](Cc2ccncc2)NC(=O)[C@H](CC(N)=O)NC(=O)[C@H](CCC(=O)O)N(C)C(=O)[C@H](Cc2c[nH]c3ncccc23)NC(=O)[C@H](CO)NC(=O)[C@H]([C@@H](C)c2ccc(O)cc2)NC1=O [SEQ ID NO. 46] ({CH2CO}-[Nle][X12]S[Trp(7-aza)][NMeE]N[4Pal][Trp(7-Cl)][αMeS][Phe(4-COOH)]Y[Sar][Trp(βS-Me,7-OMe)]C-NH2; thioether N-14)	< 6.00	10.15	8.52	–	–
